From patent US20240041042A1, “1-(PYRIDYL)-5-AZINYLPYRAZOLE DERIVATIVES, AND THEIR USE FOR CONTROL OF UNDESIRED PLANT GROWTH” (Bayer Aktiengesellschaft, priority 2020, published 2024)

What was measured:
Type in all cases: in vivo
[1] = tested on: Alopecurus myosuroides (ALOMY); experiment: Pre-emergence herbicidal action against ALOMY; settings: scored visually after about 3 weeks, 100% = plants have died
Summary of the method: (§1)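 Read-out is visual percent damage relative to untreated pots, with 100% meaning dead plants and 0% meaning no difference, assessed roughly three weeks after treatment. Compounds were applied pre-emergence to the covering soil at up to 320 g/ha.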

[2] = tested on: Amaranthus retroflexus (AMARE); experiment: Pre-emergence herbicidal action against AMARE; settings: visual scoring after about 3 weeks vs untreated controls
Summary of the method: as §1

[3] = tested on: Avena fatua (AVEFA); experiment: Pre-emergence herbicidal action against AVEFA; settings: visual scoring after about 3 weeks vs untreated controls
Summary of the method: as §1

[4] = tested on: Matricaria inodora (MATIN); experiment: Pre-emergence herbicidal action against MATIN
Summary of the method: as §1

[5] = tested on: Polygonum convolvulus (POLCO); experiment: Pre-emergence herbicidal action against POLCO
Summary of the method: as §1

[6] = tested on: Alopecurus myosuroides (ALOMY); experiment: Post-emergence herbicidal action against ALOMY; settings: visual rating about 3 weeks after treatment vs untreated controls (100% = plants have died, 0% = like control plants)
Summary of the method: (§2)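 Values are percent visual activity (0% like control, 100% plants dead) after about 3 weeks in the greenhouse. Treatment: post-emergence spray at one-leaf stage, 600 l/ha spray volume, 0.5% additive, doses 320 g/ha or lower.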

[7] = tested on: Avena fatua (AVEFA); experiment: Post-emergence herbicidal action against AVEFA; settings: visual rating about 3 weeks after treatment
Summary of the method: as §2

[8] = tested on: Echinochloa crus-galli (ECHCG); experiment: Post-emergence herbicidal action against ECHCG
Summary of the method: as §2

[9] = tested on: Pharbitis purpurea (PHBPU); experiment: Post-emergence herbicidal action against PHBPU
Summary of the method: as §2

[10] = tested on: Setaria viridis (SETVI); experiment: Post-emergence herbicidal action against SETVI
Summary of the method: as §2

| SMILES | Pre-emergence action against ALOMY ([1]; 80 g/ha) | Pre-emergence action against ALOMY ([1]; 320 g/ha) | Pre-emergence action against AMARE in % ([2]; 80 g/ha) | Pre-emergence action against AMARE in % ([2]; 320 g/ha) | Pre-emergence action against AVEFA in % ([3]; 80 g/ha) | Pre-emergence action against AVEFA in % ([3]; 320 g/ha) | Pre-emergence action against MATIN in % ([4]; dosage 80 g/ha) | Pre-emergence action against MATIN in % ([4]; dosage 320 g/ha) | Pre-emergence action against POLCO in % ([5]; dosage 80 g/ha) | Pre-emergence action against POLCO in % ([5]; dosage 320 g/ha) | Post-emergence action against ALOMY in % ([6]; 80 g/ha) | Post-emergence action against ALOMY in % ([6]; 320 g/ha) | Post-emergence action against AVEFA in % ([7]; 80 g/ha) | Post-emergence action against AVEFA in % ([7]; 320 g/ha) | Post-emergence action against ECHCG in % ([8]; dosage 80 g/ha) | Post-emergence action against ECHCG in % ([8]; dosage 320 g/ha) | Post-emergence action against PHBPU in % ([9]; dosage 80 g/ha) | Post-emergence action against PHBPU in % ([9]; dosage 320 g/ha) | Post-emergence action against SETVI in % ([10]; dosage 80 g/ha) | Post-emergence action against SETVI in % ([10]; dosage 320 g/ha) |
| --- | --- | --- | --- | --- | --- | --- | --- | --- | --- | --- | --- | --- | --- | --- | --- | --- | --- | --- | --- | --- |
| CCOC(=O)[C@@H](C)Oc1nn(-c2ncccc2F)c(-c2ccc(F)nc2)c1C1CC1 [Example I-375] | 80% | 90% | 100% | 100% | 90% | 100% | 100% | 100% | 90% | 90% | 100% | 100% | 90% | 90% | 90% | 90% | 80% | 90% | 90% | 90% |
| COC(=O)C(C)COC(=O)C(C)Oc1nn(-c2ccccn2)c(-c2ccc(F)nc2)c1Cl (centres unmarked) [Example I-291] | 100% | 100% | 80% | 100% | 80% | 90% | – | 90% | 80% | 90% | 80% | 80% | 80% | 80% | 80% | 80% | 80% | 90% | 80% | 80% |
| O=C(O)COc1nn(-c2ncccc2F)c(-c2ccc(F)nc2)c1Br [Example I-17] | 100% | 100% | 100% | 100% | 80% | 100% | 90% | 100% | 90% | 100% | 90% | 90% | – | 80% | 80% | 80% | – | 80% | 80% | 80% |
| COC(=O)[C@@H](C)Oc1nn(-c2ncccc2F)c(-c2ccc(F)nc2)c1C1CC1 [Example I-307] | 80% | 90% | 100% | 100% | 90% | 100% | 90% | 100% | 90% | 100% | 100% | 100% | 90% | 90% | 90% | 90% | 80% | 90% | 90% | 90% |
| COC(=O)[C@@H](C)Oc1nn(-c2ncccc2F)c(-c2ccc(F)nc2)c1I [Example I-341] | – | 100% | 100% | 100% | – | 90% | 90% | 100% | 90% | 100% | 80% | 100% | 80% | 80% | 100% | 100% | 90% | 100% | 80% | 80% |
